Measurements published in patent publication US20070166356A1, “Food supplement for animals, comprising an olfactory additive” (ADISSEO IRELAND LIMITED, priority 2004, published 2007).

System: turkey poults of stock BUT 9
Assay: Free-choice feed consumption test in 6 day turkey poults
Format: in vivo
Settings: per cage of 5 turkey poults
Excerpt: Test item no. 2 therefore comprises 0.05% of olfactory additive for 99.95% of methionine hydroxyl-analog. The test items are incorporated into a mixture of maize and soya, which is used as basic feed. The experimental plan is the following: [table] 150 turkey poults of stock BUT 9 are selected and placed in cages fitted out with a water bowl and two feeders with a capacity of about 0.3 kg. 5 turkey poults are placed per cage. The animals receive during the pre-experimental period (i.e. from D0to D6, 8.00am), an identical standard starting feed. During the experimental phase (i.e. D6 from 8am to 5pm), the animals are separated into three groups 10 A, B and C. For each group and each cage of this group, the animals have the choice between two test items. For example the animals of group A may choose between test item no. 3 and test item no. 1. Feeding is ad libitum with checking of consumption at […]. Furthermore, at each measuring time, the two feeders are interchanged in order to prevent the animals from being accustomed to the positioning of the feeders. […] The illustrated consumption is the consumption per cage, i.e. for 5 turkey poults. This consumption satisfies the following formula: (weight of the feeder at the end of the period)-(weight of the feeder at the beginning of the period). Averages are performed for each group over 12 cages.

Structure (SMILES): CSCC[C@H](N)C(=O)O [Test item no. 3, methionine]
- Consumption, Average (T0 + 1 h, group A: choice test item no. 3 (0.2%) vs no. 1 (0.23%)): 6.8 g
- Consumption, Average (T0 + 1 h, group B: choice test item no. 3 (0.2%) vs no. 2 (0.23%), no. 2 = hydroxy analog + 0.5 g/kg olf. additive): 9.1 g
- Consumption, Average (T0 + 3 h, group A: choice test item no. 3 (0.2%) vs no. 1 (0.23%)): 15.5 g
- Consumption, Average (T0 + 3 h, group B: choice test item no. 3 (0.2%) vs no. 2 (0.23%)): 14.9 g
- Consumption, Average (T0 + 5 h, group A: choice test item no. 3 (0.2%) vs no. 1 (0.23%)): 23.3 g
- Consumption, Average (T0 + 5 h, group B: choice test item no. 3 (0.2%) vs no. 2 (0.23%)): 22.6 g
- Consumption, Average (T0 + 7 h, group A: choice test item no. 3 (0.2%) vs no. 1 (0.23%)): 30.3 g
- Consumption, Average (T0 + 7 h, group B: choice test item no. 3 (0.2%) vs no. 2 (0.23%)): 30.0 g
- Consumption, Average (T0 + 9 h, group A: choice test item no. 3 (0.2%) vs no. 1 (0.23%)): 37.7 g
- Consumption, Average (T0 + 9 h, group B: choice test item no. 3 (0.2%) vs no. 2 (0.23%)): 36.8a g
